Reference: patent US12358999B2, “Protein recognizing drug moiety of antibody-drug conjugate” (DAIICHI SANKYO COMPANY, LIMITED, priority 2018, dated 2025)

How the values were obtained:
[1] = tested on: mouse antibody 1A3; assay: Specificity of mouse antibody 1A3: immunostaining after mixing with compound (Example 9 ii); format: binding; conditions: CDH6-ADC (I) treated NOG mouse tumor; blending ratio 1A3: compound (2): SN-38 0.1:0.04:0.03
Procedure: To a highly immunodeficient mouse (NOG mouse), a human tumor taken from a patient with clear cell renal cell carcinoma was subcutaneously transplanted. After CDH6-ADC (I) was administered, the tumor tissue was taken to prepare paraffin-embedded specimens. Then, stainability of mouse antibody 1A3 was examined. The tumor tissue was taken from an NOG mouse to which CDH6-ADC (I) was not administered and used as a negative control. Deparaffinization and antigen activation were carried out using Autostainer Link pretreatment system (PT Link, manufactured by DAKO) and an antigen retrieval solution (Target Retrieval Solution Low pH, manufactured by DAKO) at 97° C. for 40 minutes. The following staining operation was carried out using an automatic staining device (Dako Autostainer Link 48: manufactured by DAKO) at room temperature. After washing once with EnVision FLEX WASH BUFFER (manufactured by DAKO), Peroxidase Block 3% H2O2 (manufactured by DAKO) was added; incubation was carried out for 5 minutes; and washing was carried out once with EnVision FLEX WASH BUFFER. Protein Block serum free (manufactured by DAKO) was added; incubation was carried out for 30 minutes; and liquid was removed by air blow. Mouse antibody 1A3 was diluted with REAL Antibody Diluent (manufactured by DAKO) to fall in the range of 0.03 μg/mL to 0.3 μg/mL and reaction was made for 60 minutes. […]

[2] = tested on: mouse antibody 1A3; assay: Specificity of mouse antibody 1A3: immunostaining after mixing with compound (Example 5 ii); format: binding; conditions: Example 5, written in present tense; blending ratio 0.1:0.04:0.03
Procedure: To a highly immunodeficient mouse (NOG mouse), a human-derived tumor is subcutaneously transplanted. After the antibody-drug conjugate according to the present invention is administered, the tumor tissue is taken to prepare paraffin-embedded specimens. Then, stainability of a mouse antibody 1A3 is examined. The tumor tissue is taken from a NOG mouse to which the antibody-drug conjugate according to the present invention is not administered and used as a negative control. Deparaffinization and antigen activation are carried out using Autostainer Link pretreatment system (PT Link, manufactured by DAKO) and an antigen retrieval solution (Target Retrieval Solution Low pH, manufactured by DAKO). The following staining operation is carried out using an automatic staining device (Dako Autostainer Link 48: Manufactured by DAKO). After washing with EnVision FLEX WASH BUFFER (manufactured by DAKO), Peroxidase Block 3% H2O2 (manufactured by DAKO) is add; incubation is carried out; and washing is carried out with EnVision FLEX WASH BUFFER. Protein Block serum free (manufactured by DAKO) is added; incubation s carried out; and liquid is removed by air blow. Mouse antibody 1A3 is diluted with REAL Antibody Diluent (manufactured by DAKO) and reacted. […]

[3] = tested on: mouse antibody 1A3; assay: Competitive inhibition with HER2-ADC (I), chemical structure recognized by mouse antibody 1A3 (Gyrolab); format: binding; conditions: compound 1 and 100 μg/mL dilution solutions; response at HER2-ADC (I) 250 ng/mL
Text: The chemical structure to be recognized by mouse antibody 1A3 was checked by competitive inhibition with HER2-ADC (I) using Gyrolab xP workstation (GYROS PROTEIN Technologies). As the compound for use in competitive inhibition, compound (1), compound (2), compound (7), compound (8), compound (9), compound (10), compound (11), Topotecan and Rubitecan were selected.
As the capture reagent, mouse antibody 1A3 labeled with biotin by a labeling kit (ChromaLink Biotin Protein LABELING Kit, Solulink) was used. The concentration thereof was controlled to be 700 nM with 0.1% PS20-containing PBS. The compounds for use in competitive inhibition, compound (1), compound (2), compound (7), compound (8), compound (9), compound (10), compound (11), Topotecan and Rubitecan were separately dissolved in DMSO. The solutions each was diluted with 10% or 20% DMSO in Rexxip HN (GYROS PROTEIN Technologies) to prepare 0, 1 and 100 μg/mL dilution solutions. To each of them, the 700 nM mouse antibody 1A3 solution was added in an equal amount. The mixture was stirred and allowed to react at room temperature in a dark place for one hour or more. The concentration of HER2-ADC (I) was controlled with Rexxip HN to be 0, 0.244, 0.977, 3.91, 15.6, 62.5, 250 and 1000 ng/mL. As the detection reagent, Mouse Anti-(Anti-HER2 Ab) idiotype Ab (13C1) (IBL) was labeled by DyLight650 (registered trademark) labeling kit and put in use. The concentration thereof was controlled with Rexxip F (GYROS PROTEIN Technologies) to be 10 nM. The above solution was set at Gyrolab xP workstation and measurement was carried out by use of Gyrolab Bioaffy 200 at 200-3W-002-A (PMT5). The regression analysis was carried out by use of Gyrolab Evaluator 3.4.0.24 in 4-parametric logistic model (weight: Response). The calibration curve of HER2-ADC (I) was prepared per concentration of the competitive inhibition compound. The inhibition rate (%) was calculated by comparing the response at an HER2-ADC (I) concentration of 250 ng/mL to that of the case where no compound was added (concentration 0 ng/mL).

[4] = biological target: T1, topoisomerase I (Homo sapiens, UniProt P11387); conditions: cited from earlier work
T1 sequence (P11387 1-765): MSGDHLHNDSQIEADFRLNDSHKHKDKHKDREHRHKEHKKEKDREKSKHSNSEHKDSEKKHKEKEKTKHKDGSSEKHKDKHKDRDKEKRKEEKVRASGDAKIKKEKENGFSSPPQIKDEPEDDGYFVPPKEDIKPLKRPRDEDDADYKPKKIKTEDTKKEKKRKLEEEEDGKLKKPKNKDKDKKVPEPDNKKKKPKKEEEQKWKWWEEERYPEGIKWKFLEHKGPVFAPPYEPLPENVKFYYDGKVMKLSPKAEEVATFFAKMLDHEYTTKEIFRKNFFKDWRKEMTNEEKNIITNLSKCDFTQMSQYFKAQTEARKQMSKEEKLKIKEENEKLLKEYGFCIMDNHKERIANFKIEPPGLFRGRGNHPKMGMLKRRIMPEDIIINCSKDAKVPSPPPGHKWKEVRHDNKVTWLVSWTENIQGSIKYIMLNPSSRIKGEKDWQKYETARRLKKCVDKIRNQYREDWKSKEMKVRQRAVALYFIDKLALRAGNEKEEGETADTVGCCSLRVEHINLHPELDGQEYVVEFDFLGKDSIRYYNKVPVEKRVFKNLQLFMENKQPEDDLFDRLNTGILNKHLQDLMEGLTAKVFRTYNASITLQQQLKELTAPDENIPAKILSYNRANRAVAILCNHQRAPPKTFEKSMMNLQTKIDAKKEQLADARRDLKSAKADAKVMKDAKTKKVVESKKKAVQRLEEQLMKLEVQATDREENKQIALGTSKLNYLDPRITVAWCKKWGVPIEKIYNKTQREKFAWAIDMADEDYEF

SMILES | staining ability of mouse antibody 1A3 after mixing with the compound [1] | stainability of mouse antibody 1A3 after mixing with the compound [2] | competitive inhibition of recognition of mouse antibody 1A3 to HER2-ADC (I) (inhibition rate, FIG. 41) [3] | topoisomerase I inhibitory activity [4]
CCc1c2c(nc3ccc(O)cc13)-c1cc3c(c(=O)n1C2)COC(=O)[C@]3(O)CC [SN-38, reference compound] | did not disappear | does not disappear |  | 
CC[C@@]1(O)C(=O)OCc2c1cc1n(c2=O)Cc2c-1nc1cc(F)c(C)c3c1c2[C@@H](NC(=O)CO)CC3 [compound (2)] | disappeared | disappears | strong competitive inhibition | topoisomerase I inhibitory effect
